From paper PMC3121759 (PLoS ONE, 2011)
Where “and” joins values, the source holds several entries; their conditions need not be identical. Equal values may be shown once. Read-outs that look alike come from different tables or passages of the source.

Assays:
GlyT-1 [1] = target: T1, GlyT-1 (Rattus norvegicus, UniProt P28572); conditions: cited from earlier work
T1 construct: the tissues of whole brains or each specific brain region were homogenized; from tissue; host or cells: rat brain (whole brain or dissected regions; male Crl:CD (SD) rats)
T1 sequence (P28572 1-638): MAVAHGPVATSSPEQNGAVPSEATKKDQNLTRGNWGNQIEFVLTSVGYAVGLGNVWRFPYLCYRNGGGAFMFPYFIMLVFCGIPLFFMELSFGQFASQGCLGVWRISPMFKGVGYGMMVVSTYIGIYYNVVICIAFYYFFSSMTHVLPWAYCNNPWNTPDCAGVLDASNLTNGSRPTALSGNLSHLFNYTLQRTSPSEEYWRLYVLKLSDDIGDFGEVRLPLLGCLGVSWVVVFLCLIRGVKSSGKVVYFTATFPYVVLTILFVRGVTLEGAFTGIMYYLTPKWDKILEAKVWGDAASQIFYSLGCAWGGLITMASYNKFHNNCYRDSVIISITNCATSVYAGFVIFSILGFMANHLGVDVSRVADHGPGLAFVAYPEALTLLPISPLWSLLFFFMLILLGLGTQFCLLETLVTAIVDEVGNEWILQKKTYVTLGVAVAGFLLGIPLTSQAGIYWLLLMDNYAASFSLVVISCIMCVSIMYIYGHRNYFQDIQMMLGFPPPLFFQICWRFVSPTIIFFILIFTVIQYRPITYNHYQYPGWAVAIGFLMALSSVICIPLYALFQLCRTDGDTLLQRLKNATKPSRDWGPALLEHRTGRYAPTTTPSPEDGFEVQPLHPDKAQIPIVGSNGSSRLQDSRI

GlyT-1 [2] = conditions: read-out: IC50 for [3H]glycine uptake; cited from earlier work
GlyT-1 [3] = target: T1, GlyT-1; test: Drug inhibition of [3H]CHIBA-3007 binding to rat brain membranes; conditions: [3H]CHIBA-3007 (1 nM)
Method: The supernatant was discarded and the pellet was re-suspended, homogenized and centrifuged as above. The membrane pellet was washed and re-suspended in ice-cold HEPES buffer and was then centrifuged three times. The final pellet was re-suspended in 15 volumes of the buffer (120 mM NaCl, 2 mM KCl, 1 mM CaCl2, 1 mM MgCl2 10 mM HEPES, pH 7.5 at room temperature).
The binding reaction was terminated by rapid vacuum filtration onto Whatman GF/B glass filters pretreated with 0.5% polyethyleneimine (Sigma-Aldrich Co.) using a 24-channel cell harvester (Brandell, Gaithersburg, MD). The filters were washed with 5 mL of ice-cold assay buffer 3 times, and placed in vials with 4 mL scintillation cocktail. The radioactivity trapped by the filters was determined using a liquid scintillation counter (Beckman LS-6500; Beckman Coulter K.K., Tokyo, Japan).
(§1) The data are shown as the mean ± standard error of the mean (S.E.M.). The dissociation constant (Kd) and maximal binding (Bmax) values from saturation binding and the IC50 values from binding displacement by each drug were determined using the program GraphPad Prism (GraphPad Software, San Diego, CA). […] Correlation was analyzed by Pearson's Correlation Coefficient (PASW Statistics 19, Tokyo, Japan). Significance was set at p<0.05.

GlyT-1 [4] = target: T1, GlyT-1; test: Inhibition of [14C]glycine uptake in rat brain membranes; type: biochemical
Method: The homogenate was centrifuged at 1,000 g for 10 min to remove nuclei and debris, and then the supernatant was centrifuged again at 20,000 g for 20 min (synaptosomal P2 fraction). The pellet was washed and re-suspended in ice-cold 0.32 M sucrose, buffered with 10 mM HEPES (pH 7.4) and centrifuged again at 20,000 g for 20 min (washed P2 fraction). The pellet was re-suspended in 10 volumes of assay buffer with the following composition: 10 mM HEPES buffer (pH 7.4) containing 140 mM NaCl, 5.5 mM KCl, 1.8 mM CaCl2, 0.8 mM MgSO4, 5 mM glucose and 5 mM L-alanine (HB). The protein concentrations were measured by using a DC protein assay kit (Bio-Rad Laboratories Inc., Tokyo, Japan).
Non-specific uptake was estimated in the presence of 30 µM SSR504734. […] The filters were washed by buffer, and the radioactivity trapped by the filters was determined using a liquid scintillation counter as described above.
as §1

GlyT-1 [5] = conditions: cited from earlier work
GlyT-1 [6] = target: T1, GlyT-1; test: Equilibrium saturation binding of [3H]CHIBA-3007 to rat brain membranes
Method: For saturation-binding isotherms, 6 grade-diluted concentrations of [^3H]CHIBA-3007 (0.3125–10 nM) were used. Specific binding of [^3H]CHIBA-3007 to rat brain membranes was saturable and rapid, and represented >90% of total binding over the concentration range of [^3H]CHIBA-3007 (Figure 2).
Figure 2 Specific binding of [^3H]CHIBA-3007 to rat brain membranes. Rat brain membranes were incubated with various concentrations of [^3H]CHIBA-3007 (0.3125–10 nM) for 120 min at room temperature. Nonspecific binding was estimated in the presence of 10 µM SSR504734. The results are from a typical experiment and values are the average of duplicate determinations. […] TB: total binding, NSB: nonspecific binding, SB: specific binding. The results are means ± S.E.M. of three independent experiments performed in duplicate. […] The data are the mean of three independent experiments performed in duplicate.
(§2) For the [^3H]CHIBA-3007-binding assay, the tissues of whole brains or each specific brain region were homogenized in 15 volumes (w/v) of 10 mM 4-(2-hydroxyethyl)-1- piperazineethanesulfonic acid (HEPES) at pH 7.4 for 30 s on ice. The homogenate was centrifuged at 40,000 g for 15 min at 4°C. The supernatant was discarded and the pellet was re-suspended, homogenized and centrifuged as above. The membrane pellet was washed and re-suspended in ice-cold HEPES buffer and was then centrifuged three times. The final pellet was re-suspended in 15 volumes of the buffer (120 mM NaCl, 2 mM KCl, 1 mM CaCl2, 1 mM MgCl2 10 mM HEPES, pH 7.5 at room temperature).
Assays of the binding of [^3H]CHIBA-3007 to rat brain membranes were performed. Aliquots of the rat brain membrane suspension (200 µL) were added in duplicate to a reaction mixture containing [^3H]CHIBA-3007 and the indicated concentrations of test drug in a final volume of 0.5 mL. Non-specific binding was estimated in the presence of 10 µM SSR504734, a potent and selective GlyT-1 inhibitor [34]. [3H]CHIBA-3007 binding was allowed to occur for 120 min at room temperature for the equilibrium saturation and inhibition studies. The binding reaction was terminated by rapid vacuum filtration onto Whatman GF/B glass filters pretreated with 0.5% polyethyleneimine (Sigma-Aldrich Co.) using a 24-channel cell harvester (Brandell, Gaithersburg, MD). The filters were washed with 5 mL of ice-cold assay buffer 3 times, and placed in vials with 4 mL scintillation cocktail. The radioactivity trapped by the filters was determined using a liquid scintillation counter (Beckman LS-6500; Beckman Coulter K.K., Tokyo, Japan).
as §1

GlyT-1 [7] = target: T1, GlyT-1; test: Regional distribution of [3H]CHIBA-3007 binding in rat brain; conditions: [3H]CHIBA-3007 1 nM, seven rat brain regions
Method: After sacrificing the rats by decapitation, the brains were rapidly removed from the skulls. Whole brains or seven specific cerebral regions - the cerebral cortex, striatum, hippocampus, thalamus, midbrain, cerebellum and pons - dissected on ice by the method of Glowinski and Iversen were stored at −80°C until use for the assay.
as §2
Assays of the binding of [^3H]CHIBA-3007 to rat brain membranes were performed. […] The radioactivity trapped by the filters was determined using a liquid scintillation counter (Beckman LS-6500; Beckman Coulter K.K., Tokyo, Japan).

[8] = 120 min room temperature, mean ± S.E.M., n=3

[3H]C([3H])([3H])N(C)C1([C@@H](NC(=O)c2c(C)cccc2C)c2ccccc2)CCCC1 [[^3H]GSK931145]
Specific binding as share of total binding (GlyT-1 [1]; at concentrations around Kd): > 90% | Bmax (GlyT-1 [1]; rat brain): around 3000 fmol/mg protein

O=C(N[C@@H](c1cccc(-c2cn[nH]c2)c1)[C@H]1CCCCN1)c1nccc(C(F)(F)F)c1Cl [CHIBA-3008, N-((S)-(3-(1H-pyrazol-4-yl)phenyl)((R)-piperidin-2-yl)methyl)-3-chloro-4-(trifluoromethyl)pyridine-2-carboxamide]
IC50 (GlyT-1 [2]): 0.2 nM | Ki (GlyT-1 [3]; [8]): 2.2 ± 0.6 nM

CN(CCC(Oc1ccc(-c2ccccc2)cc1)c1ccc(F)cc1)CC(=O)O (centres unmarked) [NFPS/ALX5407, N-[3-(4-fluorophenyl)-3-(4-phenyl-phenoxy)propyl]-sarcosine]
IC50 (GlyT-1 [4]): 83.7 ± 30.3 nM | Type of interaction with binding of [3H]SB-733993 and [3H]GSK931145 (GlyT-1 [1]): uncompetitive interactions | Ki (GlyT-1 [3]; [8]): 4.1 ± 0.9 nM

CN(CC[C@@H](Oc1ccc(C(F)(F)F)cc1)c1ccccc1)CC(=O)O (racemic) [Org24598, (R,S)-(±)N-methyl-N-[(4-trifluoromethyl)phenoxy]-3-phenylpropylglycine]
IC50 (GlyT-1 [4]): 653 ± 154 nM | Ki (GlyT-1 [3]; [8]): 16.9 ± 3.1 nM

O=C(N[C@@H](c1ccsc1)[C@H]1CCCCN1)c1nccc(C(F)(F)F)c1Cl [Desmethyl-CHIBA-3007, 3-chloro-N-((S)-((R)-piperidin-2-yl)(thiophen-3-yl)methyl)-4-(trifluoromethyl)picolinamide]
IC50 (GlyT-1 [4]): 187 ± 40 nM | Ki (GlyT-1 [3]; [8]): 35.9 ± 1.3 nM

O=C(N[C@@H](c1ccccc1)[C@@H]1CCCCN1)c1cccc(C(F)(F)F)c1Cl [SSR504734]
IC50 (GlyT-1 [4]): 84.5 ± 29.8 nM | pIC50 for inhibiting [3H]glycine uptake (GlyT-1 [5]): 6.52 | Ki (GlyT-1 [3]; [8]): 24.6 ± 0.8 nM

CN1CCCC[C@@H]1[C@@H](NC(=O)c1nccc(C(F)(F)F)c1Cl)c1ccsc1 [[^3H]CHIBA-3007, [^3H]3-chloro-N-((S)-((R)-1-methylpiperidin-2-yl)(thiophen-3-yl)methyl)-4-(trifluoromethyl)picolinamide]
Kd (GlyT-1 [6]; room temperature, 0.3125–10 nM radioligand, n=3, read-out: Kd (apparent equilibrium dissociation constant)): 1.61 ± 0.16 nM

CN(CCOc1ccc(-c2ccc3c(c2)OCO3)cc1C(C)(C)C)CC(=O)O [LY2365109]
IC50 (GlyT-1 [4]): 1350 nM | Ki (GlyT-1 [3]; [8]): 16.2 ± 4.9 nM

Cc1cccc(C)c1C(=O)N[C@@H](c1ccccc1)C1(N(C)C)CCCC1 [[^3H]GSK931145]
Kd (GlyT-1 [1]): 1 to 2 nM

[3H]C([3H])([3H])N1CCCC[C@@H]1[C@@H](NC(=O)c1nccc(C(F)(F)F)c1Cl)c1ccsc1 [[^3H]CHIBA-3007, [^3H]3-chloro-N-((S)-((R)-1-methylpiperidin-2-yl)(thiophen-3-yl)methyl)-4-(trifluoromethyl)picolinamide]
Order of specific binding in brain regions (GlyT-1 [7]): midbrain > pons > thalamus > cerebellum > striatum > hippocampus > cerebral cortex | Nonspecific binding (GlyT-1 [6]): < 10% | Time to reach binding equilibrium (GlyT-1 [6]; kinetic study, data not shown): less than 5 min | Specific binding as share of total binding (GlyT-1 [6]; over the concentration range 0.3125–10 nM): > 90% | Bmax (maximal number of binding sites) (GlyT-1 [6]; room temperature, n=3): 692.8 fmol/mg protein and 692.8±22.8 fmol/mg protein

N[C@@H](COC(c1cccc(F)c1)c1ccccc1OCc1ccccc1)C(=O)O (stereo partly drawn) [ALX1393, O-[(2-benzyloxyphenyl-3-flurophenyl)methyl]-L-serine]
Ki (GlyT-1 [3]; [8]): 852 ± 56.4 nM

Cc1cccc(C)c1C(=O)N[C@@H](c1ccccc1)C1(N(C)C)CCCC1 [GSK931145]
pIC50 for inhibiting [3H]glycine uptake (GlyT-1 [5]): 7.58

CNCC(=O)O [Sarcosine, sarcosine]
IC50 (GlyT-1 [4]): 414000 nM | Ki (GlyT-1 [3]): 103000 nM | Ki (GlyT-1 [3]; [8]): 103000 nM

COc1ccc2c(c1)CC[C@H](CN(C)CC(=O)O)[C@@H]2c1ccccc1 [Org25935]
Type of interaction with binding of [3H]SB-733993 and [3H]GSK931145 (GlyT-1 [1]): uncompetitive interactions
